Measured values: patent US8614218B2, “Fused bicyclic pyrimidines” (Bayer Intellectual Property GmbH, priority 2007, dated 2013)

Assays:
Type in all cases: cell-based
A549 cells = assay: Cellular proliferation/cytotoxicity assay (Alamar Blue), A549; conditions: Homo sapiens, 72 h, Alamar Blue (Resazurin), read-out: Anti-proliterative/Cytotoxic activity (A549 cells)
Experimental: (§1) Cellular Proliferation/Cytotoxicity Assay:
(§2) The anti-proliferative activity of the compounds as described herein, is evaluated using the OvCAR3, HCT116 and A549 cell lines and the Alamar Blue (Resazurin) cell viability assay (O'Brien et al. Eur J Biochem 267, 5421-5426, 2000). Resazurin is reduced to the fluorescent resorufin by cellular dehydrogenase activity, correlating with viable, proliferating cells. Test compounds are dissolved as 10 mM solutions in DMSO and subsequently diluted. Cells like HCT116 or A549 cells were seeded into 96 well flat bottom plates at a density of 10000 cells/well (OvCAR3 cells), 1000 cells/well (HCT116 cells) or 2000 cells/well (A549 cells) in a volume of 200 μl/well. 24 hours after seeding, 1 μl each of the compound dilutions are added into each well of the 96 well plates. Each compound dilution is tested as at least as duplicates. Wells containing untreated control cells were filled with 200 μl DMEM (Dulbecco's Modified Eagle Medium) containing 0.5 vol % v:v DMSO. The cells are then incubated with the substances for 72 h at 37° C. in a humidified atmosphere containing 5 vol % CO2. To determine the viability of the cells, 20 μl of a Resazurin solution (90 mg/l) are added. After 4 h incubation at 37° C., the fluorescence is measured by extinction at λ=544 nm and an emission of λ=590 nm (Wallac Victor2; Perkin Elmer, USA). For the calculation of the cell viability, the emission value from untreated cells is set as 100% viability and the fluorescence intensity of treated cells are set in relation to the values of untreated cells. Viabilities are expressed as % values. The corresponding IC50 values of the compounds for cytotoxic activity are determined from the concentration-effect curves by means of non-linear regression. The analysis of the data is performed using a biostatistical program (GraphPad Prism, USA).
(§3) Representative IC50 values for anti-proliferative/cytotoxic potency determined in the aforementioned assay follow from the following table, in which the numbers of the compound correspond to the numbers of the examples.

OvCAR3 cells = assay: Cellular proliferation/cytotoxicity assay (Alamar Blue), OvCAR3; conditions: Homo sapiens, OVCAR-3, 72 h, Alamar Blue (Resazurin), read-out: Anti-proliferative/Cytotoxic activity (OvCAR3 cells)
Experimental: as §1, §2, §3

phospho-Akt (Ser473) = assay: Cellular PI3K/Akt pathway assay (phospho-Akt ELISA); conditions: Homo sapiens, MCF7 cells, β-Heregulin stimulated, 48 h incubation
From the text: Cellular PI3K/Akt Pathway Assay
In order to study the cellular activity of the compounds according to the present invention, an Enzyme Linked Immunosorbent Assay (ELISA)-based assay has been used specific phospho-AKT. The assay is based on a Sandwich ELISA kit (PathScan™ Phospho-Akt1 (Ser473); Cell Signaling, USA; #7160). The ELISA Kit detects endogenous levels of phosphorylated Akt protein. A phospho-Akt (Ser473) antibody (Cell Signaling, USA; #9271) has been coated onto the microwells. After incubation with cell lysates, the coated antibody captures the phosphorylated Akt protein. Following extensive washing, Akt1 monoclonal antibody (Cell Signaling, USA; #2967) is added to detect the captured phospho-Akt1 protein. HRP-linked anti-mouse antibody (HRP: horseradish peroxidase; Cell Signaling, USA; #7076) is then used to recognize the bound detection antibody. HRP substrate (=3,3′,5,5′-tetramethylbenzidine (TMB); Cell Signaling, USA; #7160) is added to develop colour. The magnitude of optical density for this developed color is proportional to the quantity of phosphorylated Akt protein.
MCF7 cells (ATCC HTB-22) are seeded into 96 well fate bottom plates at a density of 10000 cells/well. 24 hours after seeding, the cells are serum starved using low-serum medium (IMEM media including 0.1% charcoal treated FCS (FCS: fetal calf serum)). After 24 hours 1 μl each of the compound dilutions (test compounds were dissolved as 10 mM solutions in dimethylsulfoxide (DMSO) and subsequently diluted) are added into each well of the 96 well plates and incubated for 48 h at 37° C. in a humidified atmosphere containing 5% CO2. To stimulate Akt phosphorylation, β-Heregulin (20 ng/ml β-HRG) is added in parallel to the compounds. Wells containing unstimulated control cells (no β-Heregulin stimulation) are incubated with or without the diluted compound. Wells containing untreated control cells (no compound) are filled with medium containing 0.5% v:v DMSO and are or are not stimulated with β-Heregulin.
Cells are harvested and lysed with brief sonification in 1× cell lysis buffer (20 mM Tris (pH7.5), 150 mM NaCl, 1 mM ethylene diaminetetraacetate (EDTA), 1 mM ethylene glycolbis(2-aminoethyl)-N,N,N′,N′-tetraacetic acid (EGTA), 1 vol % Triton X-100, 2.5 mM sodium pyrophosphate, 1 mM β-glycerolphosphate, 1 mM Na3VO4, 1 μg/ml leupeptin). The lysate is centrifuged for 10 min. at 4° C. and the supernatant is transferred to a new tube. 100 μl of sample diluent (0.1 vol % Tween-20, 0.1 vol % sodium azide in phosphate buffered saline (PBS)) are added to a microcentrifuge tube and 100 μl of cell lysate are transferred into the tube and vortexed. 100 μl of each diluted cell lysate are added to the appropriate ELISA well, and incubated overnight at 4° C. The plates are washed 4 times with 1× wash buffer (1 vol % tween-20, 0.33 vol % thymol, in PBS). Next 100 μl of detection antibody (Akt1 (2H10) monoclonal detection antibody; Cell Signaling, USA; #2967) are added to each well and incubation continued for 1 h at 37° C. The washing procedure is repeated between each step. 100 μl of secondary antibody (anti-mouse IgG HRP-linked antibody; Cell Signaling, USA; #7076) are added to each well and incubated for 30 min. at 37° C. Than, 100 μl of TMB substrate (0.05% 3,3′,5,5′ tetramethylbenzidine, 0.1% hydrogen peroxide, complex polypeptides in a buffered solution; Cell Signaling, USA; #7160) are added to each well and incubated for 30 min. at 25° C. Finally 100 μl of STOP solution (0.05 vol % α and β unsaturated carbonyl compound) are added to each well and the plate are shaked gently. The absorbance is measured at λ=450 nm (Wallac Victor2; Perkin Elmer, USA) within 30 min. after adding the STOP solution. The analysis of the data is performed using a statistical program (Excel; Microsoft, USA). Preferred compounds show an inhibitory activity towards Akt phosphorylation below 10 μM.

phospho-GSK3 (Ser9) = assay: Cellular pGSK3 assay (phospho-GSK3 ELISA); conditions: Homo sapiens, MCF7 cells, 48 h incubation, read-out: Cellular pGSK3 pathway assay
Experimental: In order to study the cellular activity of the compounds according to the present invention, an ELISA-based assay has been established for the phosphorylated protein glycogen synthetase kinase 3 (GSK3). The assay is based on a solid phase sandwich ELISA that detects endogenous levels of phosphorylated GSK3 using a phospho-GSK3 (Ser9) specific antibody (BioSource International, Inc.; Catalog #KHO0461). After incubation with cell lysates, the coated antibody captures the phosphorylated GSK3 protein. Following extensive washing, GSK3 polyclonal antibody is added to detect the captured phospho-GSK3 protein. Secondary antibody (anti-rabbit IgG-HRP) is then used to recognize the bound detection antibody. After the second incubation and washing to remove all the excess anti-rabbit IgG-HRP, a substrate solution is added, which is acted upon by the bound enzyme to produce color. The intensity of this colored product is directly proportional to the concentration of GSK-3β [pS9] present in the original specimen. MCF7 cells (ATCC HTB-22) were seeded into 96 well fate bottom plates at a density of 10000 cells/well. After 24 h 1 μl each of the compound dilutions (test compounds were dissolved as 10 mM solutions in dimethylsulfoxide (DMSO) and subsequently diluted) were added into each well of the 96 well plates and incubated for 48 h at 37° C. in a humidified atmosphere containing 5% CO2. Cells were harvested and lysed in cell extraction buffer (10 mM Tris, pH 7.4, 100 mM NaCl, 1 mM EDTA, 1 mM EGTA, 1 mM NaF, 20 mM Na4P2O7, 2 mM Na3VO4, 1% Triton X-100, 10 vol % glycerol, 0.1 vol % SDS, 0.5 vol % deoxycholate, 1 mM phenylmethylsulfonylfluoride (PMSF)). The lysate were centrifuged for 10 min. at 4° C. and the supernatant were transferred to a new tube. 50 μl of sample diluent (standard diluent buffer, Biosource) were added and 100 μl of cell lysate transferred into the tube and vortexed. 100 μl of each diluted cell lysate were added to the appropriate ELISA well plate and incubated for 3 h at room temperature. The plates were washed 4 times with 1× wash buffer (Biosource). 50 μl of detection antibody (GSK3 (Ser9) detection antibody; BioSource) were added to each well and incubated for 30 min. at room temperature. The washing procedure was repeated between each step. 100 μl of HRP-linked secondary antibody (anti-mouse IgG HRP-linked antibody) were added to each well and incubated for 30 min. at room temperature. 100 μl of TMB substrate (0.05 vol % 3,3′,5,5′ tetramethylbenzidine, 0.1 vol % hydrogen peroxide, complex polypeptides in a buffered solution; Biosource) were added to each well and incubated for 30 min. at room temperature. Finally 100 μl of Stop solution (0.05 vol % α and β unsaturated carbonyl compound) were added to each well and the plate were shaked gently for a few seconds. The absorbance was measured at λ=450 nm (Wallac Victor2; Perkin Elmer, USA) within 30 min. after adding the stop solution.
The analysis of the data was performed using a statistical program (Excel; Microsoft, USA) and the IC50 of pGSK3 inhibition was determined.

SMILES | IC50 (A549 cells) [µM] | IC50 (OvCAR3 cells) [µM] | IC50 (phospho-Akt (Ser473)) [nM] | IC50 (phospho-GSK3 (Ser9)) [µM]
c1ccc(-c2cn3nccc3nc2-c2ccc(CN3CCC(c4n[nH]c(-c5ccccn5)n4)CC3)cc2)cc1 [Example 19, 6-phenyl-5-(4-{[4-(5-pyridin-2-yl-1,2,4-triazol-3-yl)piperidin-1-yl]methyl}phenyl)pyrazolo[1,5-a]pyrimidine] | > 10 | < 10 |  | 
c1ccc(-c2cn3ccnc3nc2-c2ccc(CN3CCC(n4cnc(-c5ccccn5)c4)CC3)cc2)cc1 [Example 20, 6-phenyl-7-(4-{[4-(4-pyridin-2-yl-imidazol-1-yl)piperidin-1-yl]methyl}phenyl)imidazo[1,2-a]pyrimidine] | > 10 | < 10 |  | 
c1ccc(-c2cn3ccnc3nc2-c2ccc(CN3CCC(c4n[nH]c(-c5cnccn5)n4)CC3)cc2)cc1 [Example 21, 6-phenyl-7-(4-{[4-(5-pyrazin-2-yl-1,2,4-triazol-3-yl)piperidin-1-yl]methyl}phenyl)imidazo[1,2-a]pyrimidine] | > 10 | < 10 |  | 
CCc1cnc2nc(-c3ccc(CN4CCC(c5n[nH]c(-c6ccccn6)n5)CC4)cc3)c(-c3ccccc3)cn12 [Example 22, 3-ethyl-6-phenyl-7-(4-{[4-(5-pyridin-2-yl-1,2,4-triazol-3-yl)piperidin-1-yl]methyl}phenyl)imidazo[1,2-a]pyrimidine] | > 10 | < 10 |  | 
FC(F)(F)c1cn2cc(-c3ccccc3)c(-c3ccc(CN4CCC(c5n[nH]c(-c6ccccn6)n5)CC4)cc3)nc2n1 [Example 26, 6-phenyl-7-(4-{[4-(5-pyridin-2-yl-1H-1,2,4-triazol-3-yl)piperidin-1-yl]methyl}phenyl)-2-(trifluoromethyl)imidazo[1,2-a]pyrimidine] | < 10 |  | < 1000 | 
CC(C)c1nc2nc(-c3ccc(CN4CCC(c5n[nH]c(-c6ccccn6)n5)CC4)cc3)c(-c3ccccc3)cn2n1 [Example 28, 2-Isopropyl-6-phenyl-5-(4-{[4-(5-pyridin-2-yl-1H-1,2,4-triazol-3-yl)piperidin-1-yl]methyl}phenyl)[1,2,4]triazolo[1,5-a]pyrimidine] | < 10 |  |  | 1 to 10
Cc1nc2nc(-c3ccc(CN4CCC(c5n[nH]c(-c6ccccn6)n5)CC4)cc3)c(-c3ccccc3)c(C)n2n1 [Example 39, 2,7-Dimethyl-6-phenyl-5-(4-{[4-(5-pyridin-2-yl-1H-1,2,4-triazol-3-yl)piperidin-1-yl]methyl}phenyl)[1,2,4]triazolo[1,5-a]pyrimidine] | < 10 |  | < 1000 | 
Cc1nc2nc(-c3ccc(CN4CCC(c5n[nH]c(-c6ncccn6)n5)CC4)cc3)c(-c3ccccc3)cn2n1 [Example 45, 2-Methyl-6-phenyl-5-(4-{[4-(5-pyrimidin-2-yl-1H-1,2,4-triazol-3-yl)piperidin-1-yl]methyl}phenyl)[1,2,4]triazolo[1,5-a]pyrimidine] | > 10 |  | < 1000 | 
Cc1cc2nc(-c3ccc(CN4CCC(c5n[nH]c(-c6ccccn6)n5)CC4)cc3)c(-c3ccccc3)c(C)n2n1 [Example 49, 2,7-Dimethyl-6-phenyl-5-(4-{[4-(5-pyridin-2-yl-1H-1,2,4-triazol-3-yl)piperidin-1-yl]methyl}phenyl)pyrazolo[1,5-a]pyrimidine] | < 10 |  | < 1000 | 
c1ccc(-c2nc(C3CCN(Cc4ccc(-c5nc6ccnn6cc5-c5ccsc5)cc4)CC3)n[nH]2)nc1 [Example 50, 5-(4-{[4-(5-Pyridin-2-yl-1H-1,2,4-triazol-3-yl)piperidin-1-yl]methyl}phenyl)-6-(3-thienyl)pyrazolo[1,5-a]pyrimidine] | < 10 |  | < 1000 | 
